Measurements published in patent US10501421B1, “Substituted benzimidazoles as modulators of Ras signaling” (VANDERBILT UNIVERSITY, priority 2017, dated 2019).
Where a name gives a salt, the structure may show the parent alone. Read-outs that look alike come from different tables or passages of the source.

Experiments:
[1] = target: Ras GEF SOS (Son of Sevenless) (Homo sapiens, UniProt Q07889); assay: SOS-mediated nucleotide exchange on Ras (BODIPY-GDP fluorescence); format: biochemical; conditions: SOS-mediated exchange of BODIPY-GDP for GTP on Ras
Ras GEF SOS (Son of Sevenless), sequence (P01112 1-166 partner limits assumed, one chain of several): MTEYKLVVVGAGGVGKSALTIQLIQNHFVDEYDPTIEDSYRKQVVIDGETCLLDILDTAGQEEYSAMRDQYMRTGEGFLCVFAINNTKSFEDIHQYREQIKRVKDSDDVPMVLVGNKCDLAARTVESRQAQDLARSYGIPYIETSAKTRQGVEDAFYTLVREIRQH
In short: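 Exchange rates were taken from single-exponential fits of the fluorescence time course as BODIPY-GDP on Ras was replaced by GTP. Compound went in first, then GTP and SOS. Mean rates plotted against concentration gave EC50 by four-parameter dose-response fitting.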

Son of Sevenless (SOS) = target: T1, Son of Sevenless (SOS) (Homo sapiens, UniProt Q07889); assay: Binding to SOS, fluorescence polarization anisotropy (FPA) probe displacement; conditions: displacement of FITC-conjugated probe (Example 285), affinity calculated from IC50
T1 sequence (Q07889 564-1049 limits assumed): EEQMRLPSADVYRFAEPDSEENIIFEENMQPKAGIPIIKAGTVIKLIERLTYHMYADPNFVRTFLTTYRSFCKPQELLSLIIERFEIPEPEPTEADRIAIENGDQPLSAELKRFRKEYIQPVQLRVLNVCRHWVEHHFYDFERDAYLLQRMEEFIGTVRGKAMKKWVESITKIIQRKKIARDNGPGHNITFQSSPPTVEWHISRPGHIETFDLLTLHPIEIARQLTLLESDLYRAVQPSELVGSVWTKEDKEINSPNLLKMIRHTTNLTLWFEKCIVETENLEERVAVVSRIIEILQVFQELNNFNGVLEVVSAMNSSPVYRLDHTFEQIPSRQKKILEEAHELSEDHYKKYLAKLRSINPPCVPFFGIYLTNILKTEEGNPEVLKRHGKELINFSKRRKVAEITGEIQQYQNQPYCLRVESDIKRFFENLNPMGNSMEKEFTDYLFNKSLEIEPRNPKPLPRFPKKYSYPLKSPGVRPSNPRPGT
In short: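 Test compounds were titrated against SOS pre-bound to a fluorescein-labelled probe, with anisotropy plotted versus compound concentration. Binding affinities were derived from IC50 values obtained by four-parameter dose-response fitting.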

[2] = tested on: H727 lung cancer cell lines (G12V K-Ras mutation); assay: Inhibition of cancer cell proliferation (CellTiter-Glo); format: cell-based; conditions: Homo sapiens, NCI-H727, 72 h, read-out: Cell proliferation activity (H727 cancer cell line proliferation IC50)
Procedure: Compounds of the present invention were measured for their ability to kill H727 lung cancer cell lines, which contain a G12V K-Ras mutation. Cell proliferation experiments were conducted in 96-well plates. Cells were plated at 1000 cells/well, incubated overnight, followed by treatment with a dose range of compound for 3 days at 37° C. Cell proliferation was assessed using a CellTiter-Glo assay (Promega) according to the manufacturer's protocol. Data were normalized to DMSO control. IC50 values were determined using a four-parameter dose-response (variable slope) equation. These assays are performed in a manner analogous to the assay disclosed in: Burns, M. C.; Sun, Q.; Daniels, R. N.; Camper, D. V.; Kennedy, J. P.; Phan, J.; Olejniczak, E. O.; Lee, T.; Waterson, A. G.; Rossanese, O. W.; Fesik, S. W. “Approach for targeting Ras with small molecules that activate SOS-mediated nucleotide exchange” Proc. Natl. Acad. Sci. 2014; 11(9): 3401-3406. PMCID: PMC3948241.

[3] = H727 cells, 3 days treatment, CellTiter-Glo

Row | SMILES | EC50 [1] [µM] | Ki (Son of Sevenless (SOS)) [µM] | IC50 [2] [µM] | IC50 [2, 3] [µM]
1 | Cc1cc(Cn2c(N3CCNCC3)nc3c([C@@H](N)c4ccccc4)cc(Cl)cc32)cc(C)c1F [Example 159, (S)-(6-chloro-1-(4-fluoro-3,5-dimethylbenzyl)-2-(piperazin-1-yl)-1H-benzo[d]imidazol-4-yl)(phenyl)methanamine trifluoroacetate] | < 1 | < 0.5 | < 1 | –
2 | CC[C@H](N)c1cc(C)cc2c1nc(N1CCNCC1)n2Cc1cc(C)c(F)c(C)c1 [Example 161, (S)-1-(1-(4-fluoro-3,5-dimethylbenzyl)-6-methyl-2-(piperazin-1-yl)-1H-benzo[d]imidazol-4-yl)propan-1-amine trifluoroacetate] | < 1 | 0.5 to 1 | 1 to 5 | –
3 | Cc1cc(CN2CCCCC2)c2nc(N3CCNCC3)n(Cc3cc(C)c(F)c(C)c3)c2c1 [Example 125, 1-(4-fluoro-3,5-dimethylbenzyl)-6-methyl-2-(piperazin-1-yl)-4-(piperidin-1-ylmethyl)-1H-benzo[d]imidazole trifluoroacetate] | 1 to 5 | 1 to 5 | 1 to 5 | –
4 | Cc1cc(-c2cccc3c2nc(N2CCNCC2)n3Cc2ccc(F)c(Cl)c2)n(C)n1 [Example 93, 1-(3-chloro-4-fluorobenzyl)-4-(1,3-dimethyl-1H-pyrazol-5-yl)-2-(piperazin-1-yl)-1H-benzo[d]imidazole] | 1 to 5 | 1 to 5 | – | 1 to 5
5 | Cc1cc(Cn2c(NCC3CNC3)nc3ccc(OC(C)C(F)(F)F)nc32)ccc1F (stereo not drawn) [Example 260, N-(azetidin-3-ylmethyl)-3-(4-fluoro-3-methylbenzyl)-5-((1,1,1-trifluoropropan-2-yl)oxy)-3H-imidazo[4,5-b]pyridin-2-amine] | 5 to 30 | > 5 | – | < 1
6 | NCC1CN(c2nc3ccc(Cl)cc3n2Cc2ccc(F)c(Cl)c2)C1 [Example 76, (1-(6-chloro-1-(3-chloro-4-fluorobenzyl)-1H-benzo[d]imidazol-2-yl)azetidin-3-yl)methanamine trifluoroacetate] | < 1 | < 0.5 | 1 to 5 | –
7 | CCc1cc(Cn2c(N3CCNCC3)nc3cc(C)c(C)cc32)ccc1F [Example 50, 1-(3-ethyl-4-fluorobenzyl)-5,6-dimethyl-2-(piperazin-1-yl)-1H-benzo[d]imidazole trifluoroacetate] | 1 to 5 | > 5 | 1 to 5 | –
8 | Cc1cc(OC2CCNC2)c2nc(N3CCNCC3)n(Cc3cc(C)c(F)c(C)c3)c2c1 (stereo not drawn) [Example 317, 1-(4-fluoro-3,5-dimethylbenzyl)-6-methyl-2-(piperazin-1-yl)-4-(pyrrolidin-3-yloxy)-1H-benzo[d]imidazole] | < 1 | 0.5 to 1 | – | 5 to 20
9 | COc1ccccc1-c1cccc2c1nc(N1CCNCC1)n2Cc1ccc(F)c(Cl)c1 [Example 81, 1-(3-chloro-4-fluorobenzyl)-4-(2-methoxyphenyl)-2-(piperazin-1-yl)-1H-benzo[d]imidazole trifluoroacetate] | 1 to 5 | 0.5 to 1 | 5 to 20 | –
10 | CCCNCc1c(C)c(C)cc2c1nc(N1CCNCC1)n2Cc1cc(C)c(F)c(C)c1 [Example 132, N-((1-(4-fluoro-3,5-dimethylbenzyl)-5,6-dimethyl-2-(piperazin-1-yl)-1H-benzo[d]imidazol-4-yl)methyl)propan-1-amine trifluoroacetate] | < 1 | 1 to 5 | 1 to 5 | –
11 | Cc1cc(-c2ccccc2F)c2nc(N3CCNCC3)n(Cc3ccc(F)c(Cl)c3)c2c1 [Example 119, 1-(3-chloro-4-fluorobenzyl)-4-(2-fluorophenyl)-6-methyl-2-(piperazin-1-yl)-1H-benzo[d]imidazole trifluoroacetate] | 1 to 5 | < 0.5 | > 20 | –
12 | C=C[C@H](N)c1cc(Cl)cc2c1nc(NCCN)n2Cc1cc(C)c(F)c(C)c1 [Example 156, (S)—N^1-(4-(1-aminoallyl)-6-chloro-1-(4-fluoro-3,5-dimethylbenzyl)-1H-benzo[d]imidazol-2-yl)ethane-1,2-diamine trifluoroacetate] | < 1 | < 0.5 | 1 to 5 | –
13 | Fc1ccc(Cn2c(NC3CCNC3)nc3ccc(Cl)cc32)cc1Cl (stereo not drawn) [Example 77, 6-chloro-1-(3-chloro-4-fluorobenzyl)-N-(pyrrolidin-3-yl)-1H-benzo[d]imidazol-2-amine trifluoroacetate] | < 1 | 0.5 to 1 | 1 to 5 | –
14 | Cc1cc2c(nc(N3CCNCC3)n2Cc2ccc(F)c(Cl)c2)c(-c2ccccc2C(C)C)c1C [Example 109, 1-(3-chloro-4-fluorobenzyl)-4-(2-isopropylphenyl)-5,6-dimethyl-2-(piperazin-1-yl)-1H-benzo[d]imidazole] | 1 to 5 | 0.5 to 1 | – | 1 to 5
15 | Cc1cnc2nc(N3CCCC(N)C3)n(Cc3ccc(F)c(C)c3)c2c1 (stereo not drawn) [Example 240, 1-(1-(4-fluoro-3-methylbenzyl)-6-methyl-1H-imidazo[4,5-b]pyridin-2-yl)piperidin-3-amine] | 1 to 5 | > 5 | – | 5 to 20
16 | Cc1cnc2nc(N3CC(CN)C3)n(Cc3ccc(F)c(C)c3)c2c1 [Example 248, (1-(1-(4-fluoro-3-methylbenzyl)-6-methyl-1H-imidazo[4,5-b]pyridin-2-yl)azetidin-3-yl)methanamine] | < 1 | 0.5 to 1 | – | 5 to 20
17 | Cc1cc(-c2ccccc2Cl)c2nc(N3CCNCC3)n(Cc3ccc(F)c(Cl)c3)c2c1 [Example 118, 1-(3-chloro-4-fluorobenzyl)-4-(2-chlorophenyl)-6-methyl-2-(piperazin-1-yl)-1H-benzo[d]imidazole trifluoroacetate] | 1 to 5 | < 0.5 | 1 to 5 | –
18 | Cc1cnc2nc(N3CCC(N)C3)n(Cc3ccc(F)c(C)c3)c2c1 (stereo not drawn) [Example 241, 1-(1-(4-fluoro-3-methylbenzyl)-6-methyl-1H-imidazo[4,5-b]pyridin-2-yl)pyrrolidin-3-amine] | 1 to 5 | > 5 | – | > 20
19 | Cc1cc(C2NCCc3c2[nH]c2ccccc32)c2nc(N3CCNCC3)n(Cc3cc(C)c(F)c(C)c3)c2c1 (stereo not drawn) [Example 139, 1-(1-(4-fluoro-3,5-dimethylbenzyl)-6-methyl-2-(piperazin-1-yl)-1H-benzo[d]imidazol-4-yl)-2,3,4,9-tetrahydro-1H-pyrido[3,4-b]indole trifluoroacetate] | 1 to 5 | 1 to 5 | 1 to 5 | –
20 | Cc1cc2c(nc(NCCN)n2Cc2ccc(F)c(Cl)c2)c(-c2ccccc2)c1C [Example 111, N^1-(1-(3-chloro-4-fluorobenzyl)-5,6-dimethyl-4-phenyl-1H-benzo[d]imidazol-2-yl)ethane-1,2-diamine trifluoroacetate] | 1 to 5 | 1 to 5 | 1 to 5 | –
21 | Cc1cc(Cn2c(N3CCNCC3)nc3c(CN4CCCC4)cc(Cl)cc32)cc(C)c1F [Example 130, 6-chloro-1-(4-fluoro-3,5-dimethylbenzyl)-2-(piperazin-1-yl)-4-(pyrrolidin-1-ylmethyl)-1H-benzo[d]imidazole trifluoroacetate] | < 1 | < 0.5 | 1 to 5 | –
22 | Fc1ccc(Cn2c(NCC3CNC3)nc3ccc(Cl)cc32)cc1Cl [Example 75, N-(azetidin-3-ylmethyl)-6-chloro-1-(3-chloro-4-fluorobenzyl)-1H-benzo[d]imidazol-2-amine trifluoroacetate] | 1 to 5 | 1 to 5 | 1 to 5 | –
23 | Cc1cc2c(nc(NCCN)n2Cc2ccc(F)c(Cl)c2)c(-c2c(C)nn(C)c2C)c1C [Example 114, N^1-(1-(3-chloro-4-fluorobenzyl)-5,6-dimethyl-4-(1,3,5-trimethyl-1H-pyrazol-4-yl)-1H-benzo[d]imidazol-2-yl)ethane-1,2-diamine trifluoroacetate] | 1 to 5 | 1 to 5 | 5 to 20 | –
